Laboratory results published in ChEMBL document CHEMBL5236643, “Discovery and characterization of orally bioavailable 4-chloro-6-fluoroisophthalamides as covalent PPARG inverse-agonists” (Bioorg Med Chem, 2023).

Key:
[1] = target: T1, Peroxisome proliferator-activated receptor gamma (Homo sapiens, UniProt P37231); assay: Inverse agonist activity at GST tagged human PPARgamma LBD (231 to 505 residues) expressed in Escherichia coli BL21(DE3) assessed as recruitment of fluorescein labeled corepressor NCOR2 Smrt-ID2 peptide to PPARgamma LBD incubated for 24 hrs by LanthaScreen TR-FRET assay
T1 sequence (P37231 whole entry): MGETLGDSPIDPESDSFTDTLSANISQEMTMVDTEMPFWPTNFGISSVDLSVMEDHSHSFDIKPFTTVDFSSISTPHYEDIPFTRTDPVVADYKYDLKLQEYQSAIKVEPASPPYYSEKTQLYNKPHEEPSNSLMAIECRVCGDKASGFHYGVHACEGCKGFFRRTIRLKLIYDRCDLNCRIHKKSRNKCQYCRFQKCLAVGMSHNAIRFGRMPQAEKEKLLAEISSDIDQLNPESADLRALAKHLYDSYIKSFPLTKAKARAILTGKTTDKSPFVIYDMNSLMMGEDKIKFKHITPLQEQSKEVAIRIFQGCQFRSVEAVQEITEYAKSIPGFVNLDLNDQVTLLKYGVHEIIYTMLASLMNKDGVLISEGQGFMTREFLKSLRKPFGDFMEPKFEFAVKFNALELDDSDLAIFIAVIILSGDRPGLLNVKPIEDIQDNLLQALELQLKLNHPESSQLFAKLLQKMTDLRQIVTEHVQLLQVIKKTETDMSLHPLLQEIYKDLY

[2] = Antiproliferative activity against human UM-UC-9 assessed as inhibition of cell proliferation by measuring maximum efficacy after 7 days by IncuCyte live-cell imaging assay; format: functional; conditions: UM-UC-9, 168 h, time 7 day
[3] = Antiproliferative activity against human UM-UC-9 assessed as inhibition of cell proliferation measured after 7 days by IncuCyte live-cell imaging assay; conditions: UM-UC-9, 168 h
[4] = target: T1, Peroxisome proliferator-activated receptor gamma; assay: Inverse agonist activity at human PPARgamma in human RT112/84 transfected with NLuc-fused FABP4 assessed as reduction in PPARgamma transactivation incubated for 6 to 18 hrs by Nano-Glo luciferase assay; format: cell-based

Row | SMILES | EC50 [1] | Emax [2] | IC50 [3] | IC50 [4]
1 | Cc1cc(-c2nnco2)ccc1NC(=O)c1cc(C(=O)NCc2ccc(F)c(F)c2)c(F)cc1Cl | 49 nM | 87% |  | 
2 | O=C(NCc1ccc(F)c(F)c1)c1cc(C(=O)Nc2ccccn2)c(Cl)cc1F | 110 nM | 100% |  | 
3 | Cc1cccnc1NC(=O)c1cc(C(=O)NCc2ccc(F)c(F)c2)c(F)cc1Cl | 500 nM | 108% | 695 nM | 0.091 µM
4 | O=C(NCc1ccccc1)c1cc(Cl)cc(C(=O)Nc2ccccc2)c1 | > 5000 nM |  |  | > 5 µM
5 | Cc1ccccc1NC(=O)c1cc(C(=O)NCc2ccccc2)c(F)cc1Cl | 69 nM | 26% | 165 nM | 0.038 µM
6 | Cc1cccc(-c2nc3cc(NC(=O)c4cc(C(=O)NCc5ccc(F)c(F)c5)c(F)cc4Cl)ccc3o2)c1 | 230 nM | 93% | 18.7 nM | 
7 | Cc1cc(C(=O)NCc2ccccc2)cc(C(=O)Nc2ccccc2)c1Cl | > 33000 nM |  |  | > 5 µM
8 | COCCOCc1cc(F)ccc1CNC(=O)c1cc(C(=O)Nc2ccc(C(F)(F)F)cc2C)c(Cl)cc1F | 31 nM |  |  | 
9 | O=C(NCc1ccccc1)c1cc(C(=O)Nc2ccccc2)c(Cl)c(C(F)(F)F)c1 | 2200 nM |  |  | > 5 µM
10 | O=C(NCc1ccc(F)c(F)c1)c1ccc(Cl)c(C(=O)Nc2ccccc2)c1 | 1750 nM | 103% |  | 
11 | O=C(NCc1ccc(Cl)cc1)c1ccc(Cl)c(C(=O)Nc2ccccc2)c1 | 7200 nM |  |  | > 5 µM
12 | O=C(NCc1ccccc1)c1ccc(F)c(C(=O)Nc2ccccc2)c1 | > 5000 nM |  |  | > 5 µM
13 | Cc1cccc(CNC(=O)c2ccc(Cl)c(C(=O)Nc3ccccc3)c2)c1 | 3000 nM |  |  | > 5 µM
14 | Cc1ccccc1CNC(=O)c1ccc(Cl)c(C(=O)Nc2ccccc2)c1 | 1770 nM |  |  | 1.04 µM
